The test system of test [1] is human primary keratinocytes. Briefly: Fluorescent microsphere ingestion (phagocytosis), fluorescence microscopy. The settings on record: treated two days; Compound I 1µM, SLIGRL 10µM; vs vehicle control; Figure 1. The class given is cell-based. How it is done:
(§1) In order to study the role of the PAR-2 pathway in phagocytosis, several in vitro model systems were used. One system used contained primary human keratinocytes or a human keratinocyte cell line. In this and a number of following examples, cells were treated with test compounds for different amounts of time (from one hour to three days), and samples were then incubated with fluorescent microspheres for two hours. The beads ingested by the cells were photographed using fluorescence microscopy.
(§2) In this example, human primary keratinocytes or the human keratinocyte cell line HaCaT were used as in vitro model systems to study the effect of PAR-2 regulators on keratinocyte phagocytosis. The human primary keratinocytes used are commercially available from Clonetics (San Diego, CA). Cells were plated on chamber slides, at 2 chambers/slide and 60,000 cells/chamber. […]

The test system of test [2] is human keratinocyte cell line HaCaT. Described as above. The class given is cell-based. As to conditions: Figure 2, repeated at least three times. How it is done:
as §1, §2

Test [3] deals with macrophage cell line IC-21. As to the kind of experiment: Fluorescent microsphere ingestion (phagocytosis). The class given is cell-based. As to conditions: IC-21 macrophages. How it is done:
(§3) In this example, human primary keratinocytes or the human keratinocyte cell line HaCaT were used as in vitro model systems to study the effect of PAR-2 regulators on keratinocyte phagocytosis. The human primary keratinocytes used are commercially available from Clonetics (San Diego, CA). Cells were plated on chamber slides, at 2 chambers/slide and 60,000 cells/chamber. Cells were treated once daily, for two or three days, with Compound I (1µM), SLIGRL (10µM), or vehicle (Phosphate-buffered saline, ("PBS") from Gibco-BRL (Gaithersburg, MD). After two or three days of exposure to the test compounds, cells were exposed to Nile-red or FITC fluorescent microspheres, 1 µm in diameter, 50 microspheres/cell, for two hours at 37°C. Microspheres were from Molecular Probes (Eugene, OR), and were processed according to manufacturer's instructions. Following that treatment, cells were incubated with 15% Fetal Bovine Serum ("FBS", from Gibco-BRL), for 15 minutes at 37°C and rinsed with PBS. At that time, chambers were separated from the slides, and the slides were covered with glycerol and coverslips. Fluorescent microscopy was performed using a Zeiss Axiovert 35 or a Nikon Optiphot-2 microscope.
The experiment described in Example 1 was repeated using the macrophage cell line IC-21 (obtained from the ATCC), which shares phagocytic characteristics with peritoneal macrophages. […]

Test [4] relates to macrophage cell line IC-21. As to the kind of experiment: Vybrant Phagocytosis Assay Kit, ingestion of fluorescein-labeled E. Coli K-12 particles. As to conditions: treated overnight; 100nM Compound I, 5µM SLIGRL, 0.1 mg/ml STI; untreated control = 100; one of three experiments. It counts as cell-based. The procedure:
To better quantify the level of phagocytosis, the "vybrant™ Phagocytosis Assay Kit" of Molecular Probes (Eugene, Oregon) was used, following manufacturer's instructions, with modification of cell culture conditions for the IC-21 cell line. This kit uses Fluorescein-labeled E. Coli K-12 particles, and is designed for quantifying the effects of drugs or other environmental factors on phagocytic functions. Macrophages were treated overnight with 100nM of Compound I, 5µM of SLIGRL, or 0.1 mg/ml of STI, all dissolved in PBS. The ability of the treated macrophages to ingest the fluorescent E. Coli, as measured by this kit, is documented in Table 1. This experiment was repeated three times.
In order to verify the quantitative nature of the macrophage-phagocytosis assay, a dose-response experiment was performed. Macrophages were treated with 0, 0.01, 0.1 and 1 mg/ml of STI, and the experiment was performed as described in Example 3. […] Each experiment was repeated three times.

Test [5] concerns Human keratinocytes. As to the kind of experiment: Keratinocyte microsphere phagocytosis dose-response, image analysis of fluorescent beads. The class given is cell-based. The settings on record: two days; SLIGRL 0, 5 and 10 µM; Compound I 1pM to 1µM; STI 0.01 to 1 mg/ml. How it is done: as §3, with “microscope. […]” for “microscope.”
Image analysis of the fluorescent beads inside the keratinocytes was used as an alternative way to quantify the phagocytic effect in this system. […]

For test [6], the system named is Human keratinocytes. Briefly: Timing of effect on keratinocyte microsphere phagocytosis. It counts as cell-based. More on the design: key: +: Plus signs indicate an effect on phagocytosis; -: minus signs indicate no effect on phagocytosis; -/+: plus/minus signs indicate a marginal effect on phagocytosis. As to conditions: decrease for Compound I, increase for SLIGRL. How it is done: as §3
Human keratinocytes were treated with Compound I or SLIGRL for periods of time ranging from one hour to two days. At the end of the treatment period, the cells were treated with microspheres as described in Example 1. […] Plus signs indicate an effect on phagocytosis, minus signs indicate no effect on phagocytosis, and plus/minus signs indicate a marginal effect on phagocytosis. The effects measured were a decrease for Compound I and an increase for SLIGRL. […] This implies that the PAR-2 signaling results in new protein synthesis, a reduction in protein synthesis when a turnover time is required to eliminate the existing relevant protein(s), or a rearrangement of proteins (as occurs in the reorganization of cytoskeletal components).

Test [7] concerns Keratinocytes. Briefly: Melanin uptake by keratinocytes, Fontana-Mason staining. The class given is cell-based. As to conditions: treated two days; melanin powder two hours; Figure 5A; same results with isolated melanosomes (Figure 5B). The procedure:
This example tests the ability of keratinocytes to acquire melanin or melanosomes in vitro, and thus function as a simplified system for melanosome uptake in the skin. Keratinocytes were plated in glass chamber-slides as described earlier, and were treated for two days with SLIGRL, Compound I or STI. At that time, melanin powder (from Sigma, St. Louis, MO) was mixed in sterile PBS at 10 µg/ml, and was added to the culture media (1:10 dilution) for two hours. Cells were then washed with PBS and stained with Fontana-Mason ("F&M") staining. F&M stains silver nitrate-reducing molecules, thereby permitting the identification of melanins inside the keratinocytes. […] This system, therefore, can mimic melanosome transfer and melanin distribution in vivo, as skin keratinocytes use melanin as an UV-protective cap over their nuclei. […] The same results were also observed using melanosomes isolated as described in S. Orlow, et al., J.I.D. 100:55-64 (1993) (Figure 5B).

The subject of test [8] is Primary melanocyte cultures plated under epidermal equivalents (EpiDerm). Briefly: Melanosome transfer (pigmentation) in equivalent-monolayer co-culture without keratinocyte-melanocyte contact. It counts as cell-based. The settings on record: no keratinocyte/melanocyte contact. The procedure:
(§4) Since PAR-2 is expressed in keratinocytes, but not in melanocytes, the possible requirement of keratinocyte-melanocyte contact was tested for the effect of Compound I and SLIGRL on melanosome phagocytosis by the keratinocytes. Primary melanocyte cultures (commercially available from Clonetics, San Diego) were plated under epidermal equivalents (EpiDerm, of MatTek, Ashland, MA) to create an equivalent-monolayer co-culture with no contact between keratinocytes and melanocytes. These co-cultures were compared to MelanoDerm equivalents (of MatTek), where melanocytes are present in the basal layer of the equivalent. Cultures were treated with Compound I, with the […] agonist SLIGRL. As set forth in Table 3, keratinocytes are indicated by "K", melanocytes are indicated by "M", and lack of keratinocyte-melanocyte contact is indicated as "no K-M cont". […] The same result was also observed with monolayer keratinocyte/melanocyte co-cultures having keratinocyte/melanocyte contact.

A further test has as its system MelanoDerm equivalents. As to the kind of experiment: Melanosome transfer (pigmentation) in melanocyte-containing equivalents. The class given is cell-based. The settings on record: same result in monolayer co-cultures with keratinocyte/melanocyte contact. How it is done: as §4
Test [9] deals with ICAM-1. As to the kind of experiment: ICAM-1 immunofluorescent staining of keratinocytes. The class given is cell-based, human. The settings on record: vs untreated keratinocytes; Figure 6A. The procedure: Intercellular adhesion molecule-1 (ICAM-1) is an inducible cell-surface glycoprotein that is implicated in cell-cell adhesion, cell membrane raffling and phagocytosis. Therefore, the effect of PAR-2 modulation on ICAM-1 was tested. Keratinocytes were grown in chamber slides and treated with SLIGRL, Compound I and STI as described, followed by immunofluorescent staining for ICAM-1 using standard procedures. Normal donkey serum, (used at 1:5 dilution), was obtained from Jackson Immunoresearch Laboratory (Westgrove, PA). A polyclonal goat antihuman ICAM-1 antibody, (used at 1:200 dilution), was obtained from R&D Systems (Minneapolis, MN), and FITC-conjugated donkey anti-goat antibody was obtained from Jackson Immunoresearch Laboratory. […] In untreated keratinocytes, ICAM-1 was localized mainly to the plasma membrane, with some staining at the nuclear membrane.

The subject of test [10] is ICAM-1. Briefly: ICAM-1 immuno-precipitation and Western blotting in keratinocytes. The class given is cell-based. As to conditions: treated keratinocytes; Figure 6B. The procedure: Immuno-precipitation and Western blotting experiments were performed, according to known methods, to assess the level of ICAM-1 protein in treated keratinocytes.
(In western blotting, separated proteins are transferred to a membrane and probed.)

In a further test the test system is Human PMN cells. As to the kind of experiment: Boyden chamber chemotactic cell migration towards FMLP. The settings on record: with FMLP; cells counted at 115 microns; pretreated with 5 or 0.5 mg/ml STI, 1 or 0.1 µM Compound I; FMLP alone 41. It counts as cell-based. How it is done:
Since ICAM-1 is involved in cell migration, cell migration towards a chemotactic peptide was studied in cells treated with Compound I and STI. Human PMN cells were placed in one side of a Boyden chamber, using standard techniques, and a chemotactic peptide (FMLP) was placed in the other chamber. Cells were allowed to migrate into the second chamber, and the number of migrating cells per field and distance of migration were calculated. The experiment was repeated with PMN cells pretreated with one of the following: 5 or 0.5 mg/ml STI, 1 or 0.1 µM Compound I, a buffer vehicle, and with and without chemotactic peptide. The number of cells per field that migrated the same distance as the untreated control was measured. Without the peptide and with no treatment, an average of 19 cells/field were migrating a distance of 80 microns. […] In other words, no cells (or less than 5/field) were identified at 115 microns. […] The ability to inhibit PMN migration is an important constituent of anti-inflammatory compounds.

Test [11] deals with Keratinocytes. As to the kind of experiment: Scanning electron microscopy of cell podia. It counts as cell-based. As to conditions: treated two days; vs vehicle-treated controls; Figure 8. How it is done: Both phagocytosis and cell migration involve changes in cell shape. Therefore, the effect of the PAR-2 pathway reagents on cell podia were studied using scanning electron microscopy. Keratinocytes were treated with Compound I (identified as "SH00230"), SLIGRL and a buffer vehicle for two days, and then processed for SEM using standard techniques. […] In other words, the cells' "fingers" are shorter and malformed, so they cannot grasp objects as well as can the control cells. […] In other words, these cells have a greater probability for productive interaction with particles. Comparing these SEM pictures in Figure 8, it is clear that SLIGRL-treated cells have a greater ability to interact with particles, while Compound 1-treated cells are less suited for such a task.

In test [12] the test system is Keratinocytes. Briefly: F-actin staining, cytoskeletal organization. The class given is cell-based. The settings on record: Compound I 10 nM, STI 0.1 mg/ml, SLIGRL 5 µM; Figure 9. The procedure: Therefore, the organization of F-actin filaments following PAR-2 modulation was tested. Keratinocytes were treated with Compound I (10 nM), STI (0.1 mg/ml), or with SLIGRL (5 µM) as described in Example 1, and stained for F-actin using standard techniques.

As to “(S)-N-Methyl-D-phenylalanyl-N-[4-[(aminoiminomethyl)amino]-1-(2-benzothiazolylcarbonyl)butyl]-L-prolinamide [Compound I]”, the “quantity of ingested microspheres” value in [1] is “dramatic reduction in the quantity of ingested microspheres”. Also, the microsphere ingestion result in test [2] is on record as “reduce microsphere ingestion”. Further, in test [3], the “number of microspheres ingested” value was “reduced”. In test [4], the “% effect (ingestion)” value was 89.9 +/- 13.6%. Also, in the test with Human keratinocytes [5], the “phagocytosis with increasing concentrations” value is “dose-dependent decrease in phagocytosis”. Further, the effect on phagocytosis entry in the test with Human keratinocytes [6] (Time of Treatment 1 hour) is given as “-”; in the test with Human keratinocytes [6] (Time of Treatment 2 hours), “-”; in the test with Human keratinocytes [6] (Time of Treatment 4 hours) it was “-”; in the test with Human keratinocytes [6] (Time of Treatment 6 hours) it was “-”; in the test with Human keratinocytes [6] (Time of Treatment 8 hours) it was “-/+”; in the test with Human keratinocytes [6] (Time of Treatment 16 hours), “+”. Besides, the effect on phagocytosis entry in the test with Human keratinocytes [6] (Time of Treatment 24 hours) and in the test with Human keratinocytes [6] (Time of Treatment 48 hours) was “+” each time. Besides, in the test on Keratinocytes [7], the “uptake of melanin by keratinocytes” value was “dramatically reduce the uptake of melanin”. For the same substance, the “effect on melanosome transfer, measured as the level of pigmentation” value in [8] was “no effect on melanosome transfer”. In the test on MelanoDerm equivalents, the “pigmentation by affecting melanosome transfer” value is “reduced”. In addition, in the test with ICAM-1 [9], the “intracellular localization of ICAM-1” value was “less staining was observed at the cytoplasmic membrane, and more at the nuclear membrane”. In addition, the “level of ICAM-1 protein” value in the test with ICAM-1 [10] was “decreased the level of ICAM-1 expression”. The Cells/Field in the test with Human PMN cells is given as less than 5. In the test with Keratinocytes [11], the “shape of cell podia” value is reported as “dramatically shorter podia”. The actin filaments organization result with Keratinocytes [12] is given as “reduced the ordered organization of the cell cortex”.

(Values after patent EP1037653B1, “COMPOSITIONS AND METHODS FOR REGULATING PHAGOCYTOSIS AND ICAM-1 EXPRESSION” (JOHNSON & JOHNSON CONSUMER COMPANIES, INC., priority 1997, dated 1999).)
